Source: patent US20240109925A1, “Enhanced Anti-Proliferative and Antitumor Immune Effects of Mitochondria-Targeted Hydroxyurea” (The Medical College of Wisconsin, Inc., priority 2021, published 2024)
Like-named read-outs stand apart in the source and are kept apart here.

Legend:
[1] = target: T1, mitochondrial complex III (Homo sapiens, UniProt P00156+P47985); test: Complex III-dependent oxygen consumption (OCR), Seahorse XF-96, HCT116 cells; type: cell-based
T1 construct: other: mean ± SD; HCT116, 24 hr treatment; Complex III activity (OCR, % of control); other: 0.1 μM, 24 hr, HCT116; n = 4; other: 0.5 μM, 24 hr, HCT116; other: 0.75 μM, 24 hr, HCT116; other: 1 μM, 24 hr, HCT116; Compl
Description: FIG. 2. Effects of HU and Mito-HUs on the oxygen consumption by mitochondrial complexes I and III (A) Dose-dependent effects of HU, Mito10-HU, Mito12-HU, Mito14-HU, Mito16-HU, and Mito20-HU on complex I- and complex III-dependent oxygen consumption were measured in HCT116 cells. HCT116 cells were treated with HU or Mito-HUs as indicated for 24 hr. Mitochondrial complex I activity (left) and complex III activity (right) were monitored by a Seahorse XF-96 analyzer. Either rotenone (complex I inhibitor) or antimycin A (complex III inhibitor) was acutely added and OCR assayed immediately. (B) The mitochondrial complex I (left) and III (right) dependent oxygen consumption (calculated as rotenone or antimycin A inhibitable OCR) are plotted against concentration of HU and Mito-HUs. Dashed lines represent the fitting curves used for determination of the IC50 values. Data shown are the means G SD.
Mitochondrial oxygen consumption was measured using the Seahorse XF-96 Extracellular Flux Analyzer (Agilent, North Billerica, MA) (Cheng et al., 2013, 2016; Boyle et al., 2018; Weinberg and Chandel, 2015). After cells were treated with HU or Mito-HUs for 24 hr, the OCR-based assessment of mitochondrial complex activities was carried out on acutely permeabilized cells in the presence of different mitochondrial substrates, i.e., pyruvate/malate for complex I and duroquinol for complex III (Cheng et al., 2016, 2019; Salabei et al., 2014; Wheaton et al., 2014). Rotenone, malonate, and antimycin A (Sigma-Aldrich, St. Louis, MO) were used as specific inhibitors of mitochondrial complexes I, II, and III, respectively. Briefly, cells that were intact after treatments were immediately permeabilized using the Seahorse XF Plasma Membrane Permeabilizer (Agilent). The mitochondrial complex I-induced OCR was assayed in mannitol and sucrose buffer (Salabei et al., 2014) containing 10 mM pyruvate and 1.5 mM malate (substrates for complex I) and 10 mM malonate (which inhibits complex II activities). The mitochondrial complex III-driven OCR was assayed in a mannitol and sucrose buffer containing 0.5 mM duroquinol (substrate for complex III) as well as […] and 10 mM malonate (which inhibit both complex I and II activities). The IC50 values were determined as previously reported (Cheng et al., 2019).

M-MDSC = test: In vitro differentiation of MDSCs from bone marrow cells, flow cytometry; type: cell-based, mouse; details: for IC50: Mus musculus, Bone marrow cell
Source text: (§1) FIG. 5. In vitro differentiation of MDSCs and suppressive neutrophils in the presence of different concentrations of Mito14-HU and Mito-HUs with varying hydrophobicities (A) Scheme of differentiation of MDSCs. (B) Representative flow cytometry contour plots of in vitro differentiation of MDSCs under varying concentrations of Mito14-HU using FlowJo Software (FlowJo Software, 2019). (C) Summary data depicting distribution of MDSCs after three days treatment with Mito14-HU generated from panel (B). (D and E) (D) Dose-dependent effects of Mito-HUs with different side chain lengths on M-MDSC and (E) suppressive neutrophils. Dashed lines represent the fitting curves used for determination of the IC50 values. Data shown are the means & SD.
(§2) MDSCs were generated from bone marrow cells isolated from C57b1/6 mice and cultured at a density of 1 3 10^6 cells/ml in RPMI with 10% fetal bovine serum and 25 ng/ml recombinant mouse GM-CSF (Shenandoah Biotechnology, Inc.) and 25 ng/ml recombinant mouse IL-6 (Shenandoah Biotechnology, Inc.) for three days. Then, cells were re-cultured in fresh media with inhibitors for an additional three days. Cells were scraped and examined by flow cytometry using the following markers: FITC-anti Ly6C (Biolegend, San Diego, CA), PE-Cy7 anti F4/80 (Biolegend), APC-Cy7 anti Ly6G (Biolegend), and Pacific Blue anti-CD11b (Biolegend). A gating strategy similar to that employed for the T cells was used in all MDSC differentiation assays, which were tested only on live cells after treatments. Flow cytometry data were acquired using a BD Celesta flow cytometer (BD Biosciences), and data were analyzed using FlowJo software (Treestar, Inc.).

suppressive neutrophils = test: as above; type: cell-based, mouse; details: for IC50: Mus musculus, Neutrophil, 72 h, read-out: IC50 Suppressive Neutrophils (FIG. 6); for effect on suppressive neutrophils: three days
Source text: as §1, §2

[2] = mean ± SD; HCT116, 24 hr treatment; read-out: IC50 Complex III (FIG. 2)
[3] = 72 h, read-out: IC50 M-MDSC (FIG. 6)
[4] = read-out: IC50 frequency of M-MDSCs

| Compound | effect on complex III-induced oxygen consumption ([1]; HCT116, 24 hr) | IC50 [1, 2] | IC50 (M-MDSC; [3]) | IC50 (M-MDSC; [4]) | IC50 (suppressive neutrophils) | effect on suppressive neutrophils (suppressive neutrophils) | also measured |
| --- | --- | --- | --- | --- | --- | --- | --- |
| NC(=O)NOCCCCCCCCCCCC[P+](c1ccccc1)(c1ccccc1)c1ccccc1.O=C([O-])C(F)(F)F [Mito12-HU, 12-[(carbamoylamino)oxy]-dodecyltriphenylphosphonium trifluoroacetate] | potently inhibited | 3.1 ± 0.18 µM | 2.6 ± 0.11 µM | 2.6 µM | > 4 µM | – | – |
| NC(=O)NOCCCCCCCCCCCCCCCC[P+](c1ccccc1)(c1ccccc1)c1ccccc1.O=C([O-])C(F)(F)F [Mito16-HU, 16-[(carbamoylamino)oxy]-hexadecyltriphenylphosphonium trifluoroacetate] | potently inhibited | 2.6 ± 0.39 µM | 0.44 ± 0.11 µM | 0.44 µM | 0.56 ± 0.12 µM | greater inhibitory effects | – |
| NC(=O)NOCCCCCCCCCCCCCC[P+](c1ccccc1)(c1ccccc1)c1ccccc1.O=C([O-])C(F)(F)F [Mito14-HU, 14-[(carbamoylamino)oxy]-tetradecyltriphenylphosphonium trifluoroacetate] | potently inhibited | 1.7 ± 0.69 µM | 0.89 ± 0.1 µM | 0.89 µM | 0.94 ± 0.99 µM | dose-dependently inhibited | effect on M-MDSC (M-MDSC; three days): dose-dependently inhibited |
| NC(=O)NOCCCCCCCCCC[P+](c1ccccc1)(c1ccccc1)c1ccccc1.O=C([O-])C(F)(F)F [Mito10-HU, 10-[(carbamoylamino)oxy]-decyltriphenylphosphonium trifluoroacetate] | potently inhibited | 21 ± 0.72 µM | 9.6 ± 0.39 µM | 9.6 µM | > 20 µM | – | – |
| NC(=O)NO [HU, Hydroxyurea] | no apparent effects | – | – | – | – | – | remaining activity at 10 µM ([1]; HCT-116; 10 μM, 24 hr, HCT116; n = 4; read-out: Complex III activity (OCR, % of control)): 94.1%; remaining activity at 30 µM ([1]; HCT-116; 30 μM, 24 hr, HCT116; n = 4; read-out: Complex III activity (OCR, % of control)): 81.2%; remaining activity at 100 µM ([1]; HCT-116; 100 μM, 24 hr, HCT116; n = 4; read-out: Complex III activity (OCR, % of control)): 94.6%; remaining activity at 150 µM ([1]; HCT-116; 150 μM, 24 hr, HCT116; n = 4; read-out: Complex III activity (OCR, % of control)): 92.2%; remaining activity at 200 µM ([1]; HCT-116; 200 μM, 24 hr, HCT116; n = 4; read-out: Complex III activity (OCR, % of control)): 82.7%; remaining activity at 250 µM ([1]; HCT-116; 250 μM, 24 hr, HCT116; n = 4; read-out: Complex III activity (OCR, % of control)): 89.1%; remaining activity at 300 µM ([1]; HCT-116; 300 μM, 24 hr, HCT116; n = 4; read-out: Complex III activity (OCR, % of control)): 88.7%; remaining activity at 400 µM ([1]; HCT-116; 400 μM, 24 hr, HCT116; n = 4; read-out: Complex III activity (OCR, % of control)): 86.8%; remaining activity at 500 µM ([1]; HCT-116; 500 μM, 24 hr, HCT116; n = 4; read-out: Complex III activity (OCR, % of control)): 88.9%; remaining activity at 1000 µM ([1]; HCT-116; 1000 μM, 24 hr, HCT116; n = 4; read-out: Complex III activity (OCR, % of control)): 93.1%; remaining activity at 3000 µM ([1]; HCT-116; 3000 μM, 24 hr, HCT116; n = 4; read-out: Complex III activity (OCR, % of control)): 94.4%; IC50 ([1]; read-out: IC50 Complex III (FIG. 2); mean ± SD; HCT116, 24 hr treatment): > 3000 µM; IC50 (M-MDSC; 72 h, mean ± SD, three days treatment, read-out: IC50 M-MDSC (FIG. 6)): 84 ± 2.8 µM; IC50 (suppressive neutrophils; mean ± SD, three days treatment): 18 ± 1.9 µM |
| NC(=O)NOCCCCCCCCCCCCCCCCCCCC[P+](c1ccccc1)(c1ccccc1)c1ccccc1.O=C([O-])C(F)(F)F [Mito20-HU, 20-[(carbamoylamino)oxy]-eicosanyltriphenylphosphonium trifluoroacetate] | – | 4.2 ± 0.4 µM | 0.44 ± 0.09 µM | 0.44 µM | > 1 µM | – | – |
